Here are results for 14 molecules from patent publication US12258328B2, “6-membered heteroaryl-containing aminopyridine compounds as EGFR inhibitors” (YUHAN CORPORATION, priority 2021, dated 2025).

One test deals with EGFR L858R/T790M/C797S (Homo sapiens, UniProt P00533, C797S/L858R/T790M). Briefly: Biochemical EGFR kinase assay (Lance Ultra TR-FRET), triple mutant L858R/T790M/C797S. The method in brief: (§1)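 Enzyme reactions lasted 1 hour at room temperature with test compounds between 0.003 and 10 μM, followed by 10 mM EDTA quench.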
EGFR L858R/T790M/C797S, sequence (P00533 25-1210 T790M/C797S/L858R): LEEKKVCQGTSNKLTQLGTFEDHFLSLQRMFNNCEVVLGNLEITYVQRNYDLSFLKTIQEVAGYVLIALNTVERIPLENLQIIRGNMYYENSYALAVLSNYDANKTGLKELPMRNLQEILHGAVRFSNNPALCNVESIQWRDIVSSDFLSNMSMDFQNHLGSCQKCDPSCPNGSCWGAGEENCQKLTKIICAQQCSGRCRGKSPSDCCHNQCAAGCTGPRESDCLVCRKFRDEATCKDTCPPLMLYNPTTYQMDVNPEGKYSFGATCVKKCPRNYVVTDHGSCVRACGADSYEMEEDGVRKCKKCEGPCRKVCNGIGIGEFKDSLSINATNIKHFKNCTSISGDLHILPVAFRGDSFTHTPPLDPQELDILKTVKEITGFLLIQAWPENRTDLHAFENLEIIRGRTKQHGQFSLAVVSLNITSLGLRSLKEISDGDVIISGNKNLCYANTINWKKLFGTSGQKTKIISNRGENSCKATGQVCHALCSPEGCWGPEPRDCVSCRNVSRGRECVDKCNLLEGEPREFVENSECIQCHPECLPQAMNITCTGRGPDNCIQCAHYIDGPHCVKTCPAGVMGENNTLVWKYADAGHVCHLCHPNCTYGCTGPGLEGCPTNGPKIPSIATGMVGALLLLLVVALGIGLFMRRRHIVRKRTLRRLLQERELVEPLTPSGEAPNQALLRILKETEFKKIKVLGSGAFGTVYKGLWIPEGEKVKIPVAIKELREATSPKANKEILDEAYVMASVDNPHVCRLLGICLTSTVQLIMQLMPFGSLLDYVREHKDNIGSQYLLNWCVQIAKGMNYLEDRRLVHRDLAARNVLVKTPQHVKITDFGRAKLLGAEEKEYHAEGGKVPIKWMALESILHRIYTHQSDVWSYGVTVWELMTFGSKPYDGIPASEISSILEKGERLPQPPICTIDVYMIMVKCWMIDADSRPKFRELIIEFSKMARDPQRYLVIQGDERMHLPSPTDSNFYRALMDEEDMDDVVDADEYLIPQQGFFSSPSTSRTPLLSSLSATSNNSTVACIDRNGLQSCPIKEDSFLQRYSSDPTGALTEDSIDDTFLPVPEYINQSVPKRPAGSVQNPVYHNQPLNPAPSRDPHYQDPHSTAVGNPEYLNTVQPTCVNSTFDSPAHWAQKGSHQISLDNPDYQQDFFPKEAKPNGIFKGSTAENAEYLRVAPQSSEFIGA
(In general: TR-FRET usually uses a lanthanide donor and a delayed reading to cut background.)

In the next test the target is EGFR wildtype (Homo sapiens, UniProt P00533). Nature of the test: Biochemical EGFR kinase assay (Lance Ultra TR-FRET), wildtype. The method in brief:
as §1

Another test concerns the target EGFR del19/C797S (Homo sapiens, UniProt P00533, C797S/DEL746-750). Briefly: Biochemical EGFR kinase assay (Lance Ultra TR-FRET), double mutant del19/C797S. The method in brief: as §1
In the next test the target is EGFR L858R/C797S (Homo sapiens, UniProt P00533, C797S/L858R). Nature of the test: Biochemical EGFR kinase assay (Lance Ultra TR-FRET), double mutant L858R/C797S. The method in brief:
as §1

The next test has as its target EGFR del19/T790M/C797S (Homo sapiens, UniProt P00533, C797S/DEL746-750/T790M). Briefly: Biochemical EGFR kinase assay (Lance Ultra TR-FRET), triple mutant del19/T790M/C797S. The method in brief:
as §1

Setting [1] is: ATP at Km, read-out: IC50 L858R/T790M/C797S, Km ATP.
Where [2] appears, read: ATP at Km, read-out: IC50 WT, Km ATP.
Setting [3] is: ATP at Km, read-out: IC50 del19/C797S, Km ATP.
Where [4] appears, read: ATP at Km, read-out: IC50 L858R/C797S, Km ATP.
The mark [5] stands for this setting: ATP at Km, read-out: IC50 del19/T790M/C797S, Km ATP.
Setting [6] is: IC50 L858R/T790M/C797S, 100 μM ATP.
Setting [7] is: IC50 del19/T790M/C797S, 100 μM ATP.

Where two headings read alike, the source gives them in different places. Bounds are passed on as bounds.

EGFR wildtype, sequence (P00533 25-1210): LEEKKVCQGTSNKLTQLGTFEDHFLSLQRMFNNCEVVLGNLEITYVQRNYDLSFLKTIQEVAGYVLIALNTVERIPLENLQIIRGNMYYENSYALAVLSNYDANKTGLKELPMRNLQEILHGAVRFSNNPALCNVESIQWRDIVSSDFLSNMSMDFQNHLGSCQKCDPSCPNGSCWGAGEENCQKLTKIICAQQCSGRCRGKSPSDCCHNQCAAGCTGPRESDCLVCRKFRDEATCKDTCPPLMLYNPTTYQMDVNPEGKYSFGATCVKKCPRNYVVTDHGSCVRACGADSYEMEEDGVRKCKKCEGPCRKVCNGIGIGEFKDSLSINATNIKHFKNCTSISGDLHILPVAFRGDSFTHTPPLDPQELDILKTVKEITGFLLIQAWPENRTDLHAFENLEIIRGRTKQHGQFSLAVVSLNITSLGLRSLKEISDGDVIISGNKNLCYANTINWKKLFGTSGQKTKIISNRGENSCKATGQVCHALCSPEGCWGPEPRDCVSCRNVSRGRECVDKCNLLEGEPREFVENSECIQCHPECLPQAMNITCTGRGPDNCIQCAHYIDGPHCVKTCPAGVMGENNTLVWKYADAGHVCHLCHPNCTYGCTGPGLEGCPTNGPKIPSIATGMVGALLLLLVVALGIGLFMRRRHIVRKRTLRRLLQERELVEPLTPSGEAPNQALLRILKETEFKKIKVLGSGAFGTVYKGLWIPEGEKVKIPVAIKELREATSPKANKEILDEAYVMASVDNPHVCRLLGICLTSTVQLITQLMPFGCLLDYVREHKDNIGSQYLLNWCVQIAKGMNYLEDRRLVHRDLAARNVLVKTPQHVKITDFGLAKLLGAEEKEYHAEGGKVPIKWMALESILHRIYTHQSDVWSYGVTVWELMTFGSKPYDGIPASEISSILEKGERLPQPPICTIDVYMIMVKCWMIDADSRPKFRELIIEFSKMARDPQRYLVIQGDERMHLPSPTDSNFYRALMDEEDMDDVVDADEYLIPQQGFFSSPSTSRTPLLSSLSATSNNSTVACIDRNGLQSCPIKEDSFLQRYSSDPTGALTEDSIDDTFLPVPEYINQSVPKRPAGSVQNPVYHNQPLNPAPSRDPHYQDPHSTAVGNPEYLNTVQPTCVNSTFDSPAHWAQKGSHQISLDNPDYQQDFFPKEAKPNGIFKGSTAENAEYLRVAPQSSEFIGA
EGFR del19/C797S, sequence (P00533 with tags, fused parts or gaps DEL746-750/C797S): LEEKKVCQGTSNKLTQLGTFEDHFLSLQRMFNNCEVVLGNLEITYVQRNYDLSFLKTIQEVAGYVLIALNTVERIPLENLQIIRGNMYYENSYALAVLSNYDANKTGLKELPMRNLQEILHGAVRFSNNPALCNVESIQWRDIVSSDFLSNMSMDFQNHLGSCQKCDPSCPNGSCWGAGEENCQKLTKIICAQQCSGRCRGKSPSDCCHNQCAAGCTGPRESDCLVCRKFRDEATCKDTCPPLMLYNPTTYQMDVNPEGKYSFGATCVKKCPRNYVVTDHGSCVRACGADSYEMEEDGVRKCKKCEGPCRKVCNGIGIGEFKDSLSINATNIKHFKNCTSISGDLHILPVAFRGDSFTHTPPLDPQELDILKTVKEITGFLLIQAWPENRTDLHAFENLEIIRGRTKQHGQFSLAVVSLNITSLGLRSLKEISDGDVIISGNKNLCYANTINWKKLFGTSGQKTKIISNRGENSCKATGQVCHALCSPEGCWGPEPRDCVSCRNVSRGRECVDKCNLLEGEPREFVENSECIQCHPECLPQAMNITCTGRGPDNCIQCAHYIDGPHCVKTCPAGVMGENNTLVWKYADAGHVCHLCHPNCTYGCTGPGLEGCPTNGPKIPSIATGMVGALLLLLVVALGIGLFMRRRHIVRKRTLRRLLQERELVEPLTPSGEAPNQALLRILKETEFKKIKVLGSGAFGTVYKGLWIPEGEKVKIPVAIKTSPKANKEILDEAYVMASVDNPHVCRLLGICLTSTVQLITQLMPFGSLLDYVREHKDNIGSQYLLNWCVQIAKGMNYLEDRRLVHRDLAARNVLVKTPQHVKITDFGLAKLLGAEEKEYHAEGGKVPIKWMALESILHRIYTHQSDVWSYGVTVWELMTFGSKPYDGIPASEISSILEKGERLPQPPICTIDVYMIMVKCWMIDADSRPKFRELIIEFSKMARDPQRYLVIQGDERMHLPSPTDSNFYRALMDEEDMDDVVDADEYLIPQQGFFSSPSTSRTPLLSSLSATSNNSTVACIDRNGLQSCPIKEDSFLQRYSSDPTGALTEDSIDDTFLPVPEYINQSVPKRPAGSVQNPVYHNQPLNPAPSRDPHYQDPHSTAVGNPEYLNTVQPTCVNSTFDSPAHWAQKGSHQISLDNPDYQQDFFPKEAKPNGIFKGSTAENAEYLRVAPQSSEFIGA
EGFR L858R/C797S, sequence (P00533 25-1210 C797S/L858R): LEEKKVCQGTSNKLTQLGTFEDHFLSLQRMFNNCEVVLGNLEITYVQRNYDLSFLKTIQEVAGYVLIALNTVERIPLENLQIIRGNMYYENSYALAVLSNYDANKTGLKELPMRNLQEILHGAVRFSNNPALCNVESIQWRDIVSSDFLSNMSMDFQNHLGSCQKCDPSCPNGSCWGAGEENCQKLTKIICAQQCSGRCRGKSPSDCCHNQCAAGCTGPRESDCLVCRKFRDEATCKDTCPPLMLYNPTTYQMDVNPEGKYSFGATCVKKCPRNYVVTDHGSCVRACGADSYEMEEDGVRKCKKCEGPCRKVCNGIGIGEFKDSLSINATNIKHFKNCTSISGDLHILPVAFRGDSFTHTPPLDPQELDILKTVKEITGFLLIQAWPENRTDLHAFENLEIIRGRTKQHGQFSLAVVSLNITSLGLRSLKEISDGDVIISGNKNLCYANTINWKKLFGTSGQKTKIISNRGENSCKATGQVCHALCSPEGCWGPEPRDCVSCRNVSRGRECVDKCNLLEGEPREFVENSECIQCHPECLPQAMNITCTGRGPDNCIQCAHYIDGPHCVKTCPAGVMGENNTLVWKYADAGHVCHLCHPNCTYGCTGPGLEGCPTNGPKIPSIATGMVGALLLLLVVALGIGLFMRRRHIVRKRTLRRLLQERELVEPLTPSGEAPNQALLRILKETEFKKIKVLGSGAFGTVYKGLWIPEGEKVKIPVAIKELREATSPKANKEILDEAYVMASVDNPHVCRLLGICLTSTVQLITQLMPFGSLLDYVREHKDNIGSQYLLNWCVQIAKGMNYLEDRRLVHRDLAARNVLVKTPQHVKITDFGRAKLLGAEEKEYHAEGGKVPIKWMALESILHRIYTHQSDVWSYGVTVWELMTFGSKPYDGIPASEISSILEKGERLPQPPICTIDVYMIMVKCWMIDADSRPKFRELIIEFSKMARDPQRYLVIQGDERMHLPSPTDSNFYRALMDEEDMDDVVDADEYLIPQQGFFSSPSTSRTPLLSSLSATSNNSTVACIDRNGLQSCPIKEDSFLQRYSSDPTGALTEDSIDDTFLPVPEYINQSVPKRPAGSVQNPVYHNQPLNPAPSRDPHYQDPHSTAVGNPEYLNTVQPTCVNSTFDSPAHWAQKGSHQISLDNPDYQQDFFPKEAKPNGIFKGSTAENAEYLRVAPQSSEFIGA

For `COC(c1ccc(-c2cnc(Nc3ccnc(-c4cnn(S(=O)(=O)C5CC5)c4)n3)cc2NC2CCC(C)(O)CC2)nc1)C(F)(F)F` (stereo not shown) [Example 260, (1s,4s)-4-((6′-((2-(1-(Cyclopropylsulfonyl)-1H-pyrazol-4-yl)pyrimidin-4-yl)amino)-5-(2,2,2-trifluoro-1-methoxyethyl)-[2,3′-bipyridin]-4′-yl)amino)-1-methylcyclohexan-1-ol], the IC50 at EGFR L858R/T790M/C797S (setting [1]) was found to be 4.1 nM; on EGFR wildtype (setting [2]), 7.8 nM; on EGFR del19/C797S (setting [3]) it was 10.7 nM; on EGFR L858R/C797S (setting [4]) it was 8.8 nM; at EGFR del19/T790M/C797S (setting [5]), 6.9 nM.

Consider `COC(c1ccc(-c2cnc(Nc3ccnc(-c4cnn(S(=O)(=O)C5CC5)c4)n3)cc2NC2CCC(CO)CC2)nc1)C(F)(F)F` (stereo not shown) [Example 261, ((1s,4s)-4-((6′-((2-(1-(Cyclopropylsulfonyl)-1H-pyrazol-4-yl)pyrimidin-4-yl)amino)-5-(2,2,2-trifluoro-1-methoxyethyl)-[2,3′-bipyridin]-4′-yl)amino)cyclohexyl)methanol], for which the IC50 was 4.1 nM on EGFR L858R/T790M/C797S (setting [1]); 9.2 nM on EGFR wildtype (setting [2]); 10.3 nM at EGFR del19/C797S (setting [3]); 7.5 nM at EGFR L858R/C797S (setting [4]); 9.6 nM on EGFR del19/T790M/C797S (setting [5]).

Turning to `COC(c1ccc(-c2cnc(Nc3ccnc(-c4cnn(S(=O)(=O)C5CC5)c4)n3)cc2NC2CCC(CN(C)C)CC2)nc1)C(F)(F)F` (stereo not shown) [Example 262, N^6′-(2-(1-(Cyclopropylsulfonyl)-1H-pyrazol-4-yl)pyrimidin-4-yl)-N^4′-((1s,4s)-4-((dimethylamino)methyl)cyclohexyl)-5-(2,2,2-trifluoro-1-methoxyethyl)-[2,3′-bipyridine]-4′,6′-diamine], the IC50 turned out to be 0.5 nM at EGFR L858R/T790M/C797S (setting [1]); 2 nM at EGFR wildtype (setting [2]); 1.9 nM at EGFR del19/C797S (setting [3]); 0.9 nM on EGFR L858R/C797S (setting [4]); 1.9 nM on EGFR del19/T790M/C797S (setting [5]).

Take `C[C@]1(O)CC[C@@H](Nc2cc(Nc3ccnc(-c4cnn(S(=O)(=O)C5CC5)c4)n3)ncc2-c2ccc(CCC(F)(F)F)cn2)CC1` [Example 263, (1s,4s)-4-((6′-((2-(1-(Cyclopropylsulfonyl)-1H-pyrazol-4-yl)pyrimidin-4-yl)amino)-5-(3,3,3-trifluoropropyl)-[2,3′-bipyridin]-4′-yl)amino)-1-methylcyclohexan-1-ol]: the IC50 came out at 3.4 nM at EGFR L858R/T790M/C797S (setting [1]); 14.1 nM on EGFR wildtype (setting [2]); 23.1 nM at EGFR del19/C797S (setting [3]); 0.9 nM at EGFR L858R/C797S (setting [4]); 8 nM on EGFR del19/T790M/C797S (setting [5]).

In the case of `CC(O)(c1ccc(-c2cnc(Nc3ccnc(-c4cnn(S(=O)(=O)C5CC5)c4)n3)cc2NC2CCC(F)CC2)nc1)C(F)(F)F` (stereo not shown) [Example 265, 2-(6′-((2-(1-(Cyclopropylsulfonyl)-1H-pyrazol-4-yl)pyrimidin-4-yl)amino)-4′-(((1s,4s)-4-fluorocyclohexyl)amino)-[2,3′-bipyridin]-5-yl)-1,1,1-trifluoropropan-2-ol], the IC50 at EGFR L858R/T790M/C797S (setting [1]) stood at 22 nM; on EGFR wildtype (setting [2]) it was 365 nM; at EGFR del19/C797S (setting [3]) it was 16.9 nM; on EGFR L858R/C797S (setting [4]), 85.3 nM; at EGFR del19/T790M/C797S (setting [5]), 31 nM.

Turning to `CC(O)(c1ccc(-c2cnc(Nc3ccnc(-c4cnn(S(=O)(=O)C5CC5)c4)n3)cc2NC2CCC(F)CC2)nc1)C(F)(F)F` (stereo not shown) [Example 266, 2-(6′-((2-(1-(Cyclopropylsulfonyl)-1H-pyrazol-4-yl)pyrimidin-4-yl)amino)-4′-((4-fluorocyclohexyl)amino)-[2,3′-bipyridin]-5-yl)-1,1,1-trifluoropropan-2-ol], the IC50 was 18.6 nM at EGFR L858R/T790M/C797S (setting [1]); 168 nM on EGFR wildtype (setting [2]); 12.5 nM at EGFR del19/C797S (setting [3]); 39.6 nM at EGFR L858R/C797S (setting [4]); 33 nM at EGFR del19/T790M/C797S (setting [5]).

On to `O=S(=O)(C1CC1)n1cc(-c2nccc(Nc3cc(NC4CCC(F)CC4)c(-c4ccc(N5CCC(F)(F)CC5)nn4)cn3)n2)cn1` (stereo not shown) [Example 267, N^2-(2-(1-(Cyclopropylsulfonyl)-1H-pyrazol-4-yl)pyrimidin-4-yl)-5-(6-(4,4-difluoropiperidin-1-yl)pyridazin-3-yl)-N^4-(4-fluorocyclohexyl)pyridine-2,4-diamine], for which the IC50 on EGFR L858R/T790M/C797S (setting [1]) stood at 21.7 nM; at EGFR wildtype (setting [2]), 2910 nM; on EGFR del19/C797S (setting [3]), 82.1 nM; at EGFR L858R/C797S (setting [4]) it was 357 nM; at EGFR del19/T790M/C797S (setting [5]) it was 15.4 nM.

Regarding `O=S(=O)(C1CC1)n1cc(-c2nccc(Nc3cc(NC4CCC(F)(F)CC4)c(-c4ccc(N5CCC(F)(F)CC5)nn4)cn3)n2)cn1` [Example 268, N^2-(2-(1-(Cyclopropylsulfonyl)-1H-pyrazol-4-yl)pyrimidin-4-yl)-N^4-(4,4-difluorocyclohexyl)-5-(6-(4,4-difluoropiperidin-1-yl)pyridazin-3-yl)pyridine-2,4-diamine], the IC50 turned out to be 22.4 nM on EGFR L858R/T790M/C797S (setting [1]); 4770 nM on EGFR wildtype (setting [2]); 762 nM at EGFR del19/C797S (setting [3]); 1220 nM on EGFR L858R/C797S (setting [4]); 28.9 nM on EGFR del19/T790M/C797S (setting [5]).

Turning to `CN1CCC(Oc2ccc(-c3cnc(Nc4ccnc(-c5cnn(S(=O)(=O)C6CC6)c5)n4)cc3N[C@H]3CC[C@@](C)(O)CC3)nn2)CC1` [Example 269, (1s,4s)-4-((2-((2-(1-(Cyclopropylsulfonyl)-1H-pyrazol-4-yl)pyrimidin-4-yl)amino)-5-(6-((1-methylpiperidin-4-yl)oxy)pyridazin-3-yl)pyridin-4-yl)amino)-1-methylcyclohexan-1-ol], the IC50 on EGFR L858R/T790M/C797S (setting [1]) amounted to 0.1 nM; at EGFR wildtype (setting [2]) it was 2.6 nM; on EGFR del19/C797S (setting [3]), 0.4 nM; at EGFR L858R/C797S (setting [4]) it was 0.1 nM; on EGFR del19/T790M/C797S (setting [5]), 0.1 nM.

For `CN1CCC(Oc2ccc(-c3cnc(Nc4ccnc(-c5cnn(S(=O)(=O)C6CC6)c5)n4)cc3N[C@H]3CC[C@@H](F)CC3)nn2)CC1` [Example 270, N^2-(2-(1-(Cyclopropylsulfonyl)-1H-pyrazol-4-yl)pyrimidin-4-yl)-N^4-((1s,4s)-4-fluorocyclohexyl)-5-(6-((1-methylpiperidin-4-yl)oxy)pyridazin-3-yl)pyridine-2,4-diamine], the IC50 was 0.1 nM on EGFR L858R/T790M/C797S (setting [1]); 36 nM on EGFR wildtype (setting [2]); 3.2 nM on EGFR del19/C797S (setting [3]); 1.1 nM at EGFR L858R/C797S (setting [4]); 0.3 nM on EGFR del19/T790M/C797S (setting [5]).

For `C[C@]1(O)CC[C@@H](Nc2cc(Nc3ccnc(-c4cnn(S(=O)(=O)C5CC5)c4)n3)ncc2-c2cccc(F)n2)CC1` [Example 271, (1s,4s)-4-((6′-((2-(1-(Cyclopropylsulfonyl)-1H-pyrazol-4-yl)pyrimidin-4-yl)amino)-6-fluoro-[2,3′-bipyridin]-4′-yl)amino)-1-methylcyclohexan-1-ol], the IC50 is 0.2 nM at EGFR L858R/T790M/C797S (setting [1]); 0.4 nM against EGFR L858R/T790M/C797S (setting [6]); 3.8 nM on EGFR wildtype (setting [2]); more than 10000 nM against EGFR wildtype (IC50 WT, 100 μM ATP); 0.9 nM on EGFR del19/C797S (setting [3]); 0.7 nM against EGFR del19/C797S (IC50 del19/C797S, 100 μM ATP). Besides, the IC50 on EGFR L858R/C797S (setting [4]) is 0.6 nM; against EGFR L858R/C797S (IC50 L858R/C797S, 100 μM ATP) it was 7.9 nM; at EGFR del19/T790M/C797S (setting [5]) it was 0.5 nM; against EGFR del19/T790M/C797S (setting [7]) it was 0.6 nM.

Regarding `O=S(=O)(C1CC1)n1cc(-c2nccc(Nc3cc(N[C@H]4CC[C@@H](CO)CC4)c(-c4cccc(F)n4)cn3)n2)cn1` [Example 272, ((1s,4s)-4-((6′-((2-(1-(Cyclopropylsulfonyl)-1H-pyrazol-4-yl)pyrimidin-4-yl)amino)-6-fluoro-[2,3′-bipyridin]-4′-yl)amino)cyclohexyl)methanol], the IC50 on EGFR L858R/T790M/C797S (setting [1]) was found to be 0.1 nM; at EGFR L858R/T790M/C797S (setting [6]), 0.3 nM; on EGFR wildtype (setting [2]), 1.4 nM; on EGFR wildtype (IC50 WT, 100 μM ATP), 495 nM; on EGFR del19/C797S (setting [3]), 0.6 nM; against EGFR del19/C797S (IC50 del19/C797S, 100 μM ATP), 0.7 nM. Further, the IC50 at EGFR L858R/C797S (setting [4]) was determined as 1 nM; against EGFR L858R/C797S (IC50 L858R/C797S, 100 μM ATP), 2.5 nM; on EGFR del19/T790M/C797S (setting [5]) it was 0.3 nM; on EGFR del19/T790M/C797S (setting [7]) it was 0.5 nM.

Regarding `O=S(=O)(C1CC1)n1cc(-c2nccc(Nc3cc(N[C@H]4CC[C@@H](NCCF)CC4)c(-c4cccc(F)n4)cn3)n2)cn1` [Example 273, N^6′-(2-(1-(Cyclopropylsulfonyl)-1H-pyrazol-4-yl)pyrimidin-4-yl)-6-fluoro-N^4′-((1s,4s)-4-((2-fluoroethyl)amino)cyclohexyl)-[2,3′-bipyridine]-4′,6′-diamine], the IC50 amounted to 0.3 nM on EGFR L858R/T790M/C797S (setting [6]); 2230 nM against EGFR wildtype (IC50 WT, 100 μM ATP); 1 nM at EGFR del19/C797S (IC50 del19/C797S, 100 μM ATP); 8.6 nM against EGFR L858R/C797S (IC50 L858R/C797S, 100 μM ATP); 0.2 nM at EGFR del19/T790M/C797S (setting [7]).

For the molecule `CN(C)C[C@H]1CC[C@@H](Nc2cc(Nc3ccnc(-c4cnn(S(=O)(=O)C5CC5)c4)n3)ncc2-c2cccc(F)n2)CC1` [Example 274, N^6′-(2-(1-(Cyclopropylsulfonyl)-1H-pyrazol-4-yl)pyrimidin-4-yl)-N^4′-((1s,4s)-4-((dimethylamino)methyl)cyclohexyl)-6-fluoro-[2,3′-bipyridine]-4′,6′-diamine], the IC50 at EGFR L858R/T790M/C797S (setting [1]) stood at 0.03 nM; against EGFR L858R/T790M/C797S (setting [6]), 0.1 nM; at EGFR wildtype (setting [2]), 0.5 nM; on EGFR wildtype (IC50 WT, 100 μM ATP), 108 nM; on EGFR del19/C797S (setting [3]) it was 0.1 nM; on EGFR del19/C797S (IC50 del19/C797S, 100 μM ATP) it was 0.1 nM. Besides, the IC50 worked out at 0.1 nM on EGFR L858R/C797S (setting [4]); 0.4 nM on EGFR L858R/C797S (IC50 L858R/C797S, 100 μM ATP); 0.02 nM at EGFR del19/T790M/C797S (setting [5]); 0.1 nM on EGFR del19/T790M/C797S (setting [7]).
